Among the data in ChEMBL document CHEMBL1123651, “alpha-Melanotropin: the minimal active sequence in the frog skin bioassay” (J Med Chem, 1987) are Relative potency values, retold here.

Where a SMILES comes first, the peptide text is derived from it. [ ]: non-standard residue; d: D form. Nle = CCCC[C@H](N)C(=O)O

For the assay, the system named is frog. Put plainly: In vitro potency relative to alpha-melanotropin (alpha-MSH), in the frog (Rana pipiens) skin bioassay. Type of assay: functional.
As to `N=C(N)NCCC[C@H](NC(=O)[C@@H](N)Cc1ccccc1)C(=O)O` (H-Phe-Arg-OH), the Relative potency came to 0.

`CCCC[C@H](NC(C)=O)C(=O)N[C@@H](CCC(=O)O)C(=O)N[C@@H](Cc1c[nH]cn1)C(=O)N[C@@H](Cc1ccccc1)C(=O)N[C@@H](CCCN=C(N)N)C(=O)N[C@@H](Cc1c[nH]c2ccccc12)C(=O)NCC(=O)N[C@@H](CCCCN)C(=O)N1CCC[C@H]1C(N)=O` (Ac-[Nle]EHFRWGKP-NH2) gave a Relative potency of 0.18.

Take `CCCC[C@H](NC(C)=O)C(=O)N[C@@H](CCC(=O)O)C(=O)N[C@@H](Cc1c[nH]cn1)C(=O)N[C@@H](Cc1ccccc1)C(=O)N[C@@H](CCCN=C(N)N)C(=O)N[C@@H](Cc1c[nH]c2ccccc12)C(=O)NCC(N)=O`: the Relative potency was found to be 0.002.

The compound Ac-MEHFRWGKP-NH2 came in with a Relative potency of 0.18.

Turning to `CSCC[C@H](NC(C)=O)C(=O)N[C@@H](CCC(=O)O)C(=O)N[C@@H](Cc1c[nH]cn1)C(=O)N[C@@H](Cc1ccccc1)C(=O)N[C@@H](CCCN=C(N)N)C(=O)N[C@@H](Cc1c[nH]c2ccccc12)C(=O)NCC(N)=O`, the Relative potency is 0.0005.

`CC(=O)N[C@@H](Cc1ccccc1)C(=O)N[C@@H](CCCN=C(N)N)C(=O)N[C@@H](Cc1c[nH]c2ccccc12)C(=O)NCC(N)=O` (Ac-FRWG-NH2) came in with a Relative potency of 0.

With `CC(=O)N[C@@H](Cc1c[nH]cn1)C(=O)N[C@@H](Cc1ccccc1)C(=O)N[C@@H](CCCN=C(N)N)C(N)=O` (Ac-His-Phe-Arg-NH2), the Relative potency was determined as 0.

In turn, `CCCC[C@H](NC(C)=O)C(=O)N[C@@H](CCC(=O)O)C(=O)N[C@@H](Cc1c[nH]cn1)C(=O)N[C@@H](Cc1ccccc1)C(=O)N[C@@H](CCCN=C(N)N)C(=O)N[C@@H](Cc1c[nH]c2ccccc12)C(=O)NCC(=O)N[C@@H](CCCCN)C(=O)N1CCC[C@H]1C(=O)N[C@H](C(N)=O)C(C)C` displayed a Relative potency of 0.4.

The compound `CC(=O)N[C@@H](Cc1ccccc1)C(=O)N[C@@H](CCCN=C(N)N)C(N)=O` (Ac-Phe-Arg-NH2) came in with a Relative potency of 0.

For `CC(=O)N[C@@H](Cc1c[nH]cn1)C(=O)N[C@@H](Cc1ccccc1)C(=O)N[C@@H](CCCN=C(N)N)C(=O)N[C@@H](Cc1c[nH]c2ccccc12)C(N)=O`, the Relative potency amounted to 5e-06.

`CC(=O)N[C@@H](CCCCN)C(N)=O` yielded a Relative potency of 0.

For Ac-EHFRWG-NH2, the Relative potency stood at 0.00014.

As to Ac-HFRWG-NH2, the Relative potency stood at 8e-05.

As to `CC(=O)N[C@@H](Cc1c[nH]cn1)C(=O)N[C@@H](Cc1ccccc1)C(N)=O` (Ac-His-Phe-NH2), the Relative potency amounted to 0.

Take `CCCC[C@H](NC(C)=O)C(=O)N[C@@H](CCC(=O)O)C(=O)N[C@@H](Cc1c[nH]cn1)C(=O)N[C@@H](Cc1ccccc1)C(=O)N[C@@H](CCCN=C(N)N)C(=O)N[C@@H](Cc1c[nH]c2ccccc12)C(=O)NCC(=O)N[C@@H](CCCCN)C(N)=O` (Ac-[Nle]EHFRWGK-NH2): the Relative potency is 0.002.

`CC(=O)N[C@@H](CCCCN)C(=O)N1CCC[C@H]1C(=O)N[C@H](C(N)=O)C(C)C` (Ac-Lys-Pro-Val-NH2) yielded a Relative potency of 0.
